Experimental findings from ChEMBL document CHEMBL1121424, “Orally active cephalosporins and penicillins” (J Med Chem, 1980) are described below.

Structures are written as SMILES. In brackets after ≈: the same amount, converted by molar mass.

A short description of data set [1]: Tested for the peak time in mice following 12.5 mg/kg oral dose of cephalosporin. It counts as ADME, organism-based. Also noted: dose 12.5 mg/kg, route oral. The following applies: mouse, in vivo, read-out: Peak time (converted).
Data set [2] has as its system Enterobacter cloacae. The experiment in a line: Tested for inhibition of visible growth of Enterobacter cloacae. It counts as functional.
The test system of data set [3] is Klebsiella aerogenes. The experiment in a line: Tested for inhibition of visible growth of Enterobacter aerogenes. It counts as functional.
Data set [4] deals with Escherichia coli. The experiment in a line: Tested for inhibition of visible growth of Escherichia coli. It counts as functional.
The subject of data set [5] is Escherichia coli. The experiment in a line: Tested for the antimicrobial activity against Escherichia coli in mice perorally. The data set is classed as functional. To be noted: po.
Data set [6] concerns Escherichia coli. The experiment in a line: Tested for the antimicrobial activity against Escherichia coli in mice. The data set is classed as functional.
Data set [7] is described as follows: (§1) Tested for the antimicrobial activity against Salmonella schottmuelleri in mice. The data set is classed as functional.
Data set [8] in a line: as §1. It counts as functional. This is another data set of the same source.
The subject of data set [9] is Staphylococcus aureus. The experiment in a line: Tested for the antimicrobial activity against Staphylococcus aureus. The data set is classed as functional.
For data set [10], the system named is Streptococcus pneumoniae. The experiment in a line: (§2) Tested for the antimicrobial activity against Streptococcus pneumoniae in mice. The data set is classed as functional.
In data set [11] the test system is Streptococcus pneumoniae. Described as §2. The data set is classed as functional. The source holds these as a separate data set.
Data set [12] deals with Streptococcus pyogenes. The experiment in a line: (§3) Tested for the antimicrobial activity against Streptococcus pyogenes in mice. The data set is classed as functional.
In data set [13] the test system is Streptococcus pyogenes. The data set is described as §3. The data set is classed as functional. This is another data set of the same source.
Data set [14] concerns Staphylococcus aureus. The experiment in a line: Tested for the antimicrobial activity against Staphylococcus aureus, benzyl-penicillin sensitive in mice, perorally. The following applies: po. The data set is classed as functional.
The subject of data set [15] is Proteus mirabilis. The experiment in a line: Tested for inhibition of visible growth of Proteus mirabilis. The data set is classed as functional.
Data set [16] can be described thus: Tested for inhibition of visible growth of Salmonella schottmuelleri. It counts as functional.
Data set [17] has as its system Staphylococcus aureus. The experiment in a line: Tested for inhibition of visible growth of Staphylococcus aureus, benzyl-penicillin sensitive. It counts as functional.
Data set [18] has as its system Streptococcus pyogenes. The experiment in a line: Tested for inhibition of visible growth of Streptococcus pyogenes. It counts as functional.
Data set [19] concerns Enterococcus faecalis. The experiment in a line: Tested for inhibition of visible growth of Streptococcus faecalis. It counts as functional.
Data set [20] concerns Streptococcus pneumoniae. The experiment in a line: Tested for inhibition of visible growth of Streptococcus pneumoniae. It counts as functional.
The test system of data set [21] is Klebsiella pneumoniae. The experiment in a line: Tested for inhibition of visible growth of Klebsiella pneumoniae. The data set is classed as functional.
Data set [22] relates to Staphylococcus aureus. The experiment in a line: Tested for inhibition of visible growth of Staphylococcus aureus. It counts as functional.

Regarding `N[C@@H](C(=O)NC1C(=O)N2C(C(=O)O)=C(CSc3c[nH]nn3)CSC12)c1ccc2c(c1)OCO2` (some centres not stated), the Tmax in data set [1] was 20 min. For the same compound, the minimum inhibitory concentration (MIC) in [2] was found to be 50 µg/mL (≈ 102 µM); in data set [3] it was 50 µg/mL (≈ 102 µM); in [4], 12.5 µg/mL (≈ 25.5 µM); in data set [15] it was 50 µg/mL (≈ 102 µM); in [16] it was 1.6 µg/mL (≈ 3.26 µM); in data set [17], 0.4 µg/mL (≈ 0.815 µM). In addition, the MIC is 0.2 µg/mL (≈ 0.408 µM) in [18]; 50 µg/mL (≈ 102 µM) in [19]; 0.2 µg/mL (≈ 0.408 µM) in data set [20]; 3.1 µg/mL (≈ 6.32 µM) in data set [21]; 0.8 µg/mL (≈ 1.63 µM) in [22]. Further, the ED50 in [5] is 24.8 mg/kg; in data set [6], 9.1 mg/kg; in data set [7] it was 12.5 mg/kg; in data set [8], 8.1 mg/kg; in data set [9], 0.13 mg/kg; in data set [10], 5 mg/kg. The ED50 in data set [11] amounted to 4.1 mg/kg; in [12], 0.41 mg/kg; in [13], 0.32 mg/kg; in data set [14], 0.7 mg/kg.

The term MIC denotes the least concentration at which growth counts as inhibited. A lower MIC goes with a more susceptible organism. A word on the ED50: it is the midpoint of the dose-response relation. Low values mean greater potency, high ones weaker potency.
